Here are results for nine compounds from BindingDB's records for doi:10.1016/S0960-894X(01)80562-X (1994).

The structures appear in SMILES notation.

The target in this experiment is Angiotensin-converting enzyme (Rattus norvegicus) (UniProt P47820). Description: In vitro inhibitory activity against angiotensin converting enzyme (ACE) in rat was determined.
Angiotensin-converting enzyme (Rattus norvegicus), sequence (P47820 whole entry, looked up): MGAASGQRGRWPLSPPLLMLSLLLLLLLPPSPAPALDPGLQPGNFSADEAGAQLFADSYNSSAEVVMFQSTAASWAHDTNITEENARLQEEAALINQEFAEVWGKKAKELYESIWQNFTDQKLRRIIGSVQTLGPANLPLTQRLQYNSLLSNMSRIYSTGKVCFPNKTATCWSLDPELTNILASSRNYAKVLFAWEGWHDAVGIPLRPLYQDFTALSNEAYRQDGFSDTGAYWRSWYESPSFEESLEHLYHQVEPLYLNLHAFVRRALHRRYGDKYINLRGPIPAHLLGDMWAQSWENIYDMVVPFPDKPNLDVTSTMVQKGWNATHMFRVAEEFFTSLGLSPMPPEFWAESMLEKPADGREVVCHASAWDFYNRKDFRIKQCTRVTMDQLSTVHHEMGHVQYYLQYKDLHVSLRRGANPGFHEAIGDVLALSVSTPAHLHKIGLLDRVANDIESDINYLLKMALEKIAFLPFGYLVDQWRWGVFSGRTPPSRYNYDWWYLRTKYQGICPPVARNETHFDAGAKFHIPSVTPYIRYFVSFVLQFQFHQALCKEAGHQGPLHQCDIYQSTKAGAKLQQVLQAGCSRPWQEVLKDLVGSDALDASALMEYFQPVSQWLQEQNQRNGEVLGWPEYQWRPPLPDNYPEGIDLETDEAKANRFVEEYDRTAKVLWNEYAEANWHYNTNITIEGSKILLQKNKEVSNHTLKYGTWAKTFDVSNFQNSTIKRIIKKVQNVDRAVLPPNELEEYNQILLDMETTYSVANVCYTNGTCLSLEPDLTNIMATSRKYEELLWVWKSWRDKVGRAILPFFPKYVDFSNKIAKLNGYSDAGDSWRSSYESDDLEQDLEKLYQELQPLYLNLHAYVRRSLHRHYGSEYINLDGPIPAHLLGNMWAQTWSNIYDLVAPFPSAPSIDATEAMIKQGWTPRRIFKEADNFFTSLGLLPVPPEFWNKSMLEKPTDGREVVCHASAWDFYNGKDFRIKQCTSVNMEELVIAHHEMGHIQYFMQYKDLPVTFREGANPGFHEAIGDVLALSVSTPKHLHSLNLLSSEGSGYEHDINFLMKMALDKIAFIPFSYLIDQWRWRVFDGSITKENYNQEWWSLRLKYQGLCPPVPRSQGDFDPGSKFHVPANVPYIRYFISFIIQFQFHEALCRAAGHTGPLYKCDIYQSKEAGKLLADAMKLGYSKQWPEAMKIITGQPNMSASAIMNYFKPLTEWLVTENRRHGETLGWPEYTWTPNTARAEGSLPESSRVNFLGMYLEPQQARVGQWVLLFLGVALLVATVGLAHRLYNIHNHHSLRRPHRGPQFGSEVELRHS
As to `O=C(N[C@H]1CCC(=O)N2CC[C@@H](C(=O)O)N2C1=O)[C@@H](S)Cc1ccccc1`, half-maximal inhibition (IC50) was put at 20 nM.

As to `O=C(N[C@H]1CCC(=O)N2CCC[C@@H](C(=O)O)N2C1=O)[C@@H](S)Cc1ccccc1`, the IC50 (in general, the point on the concentration scale where inhibition reaches its midpoint) was determined as 7 nM.

The compound `CN1C(=O)CC[C@H](NC(=O)[C@@H](S)Cc2ccccc2)C(=O)N1CC(=O)O` registered an IC50 of 16 nM.

`CN1CCC[C@H](NC(=O)[C@@H](S)Cc2ccccc2)C(=O)N1CC(=O)O` yielded an IC50 of 16 nM.

Turning to `CCCN1CCC[C@H](NC(=O)[C@@H](S)Cc2ccccc2)C(=O)N1CC(=O)O`, the IC50 was found to be 6 nM.

Consider `CCCN1C(=O)CC[C@H](NC(=O)[C@@H](S)Cc2ccccc2)C(=O)N1CC(=O)O`, for which the IC50 is 10 nM.

Consider `O=C(N[C@H]1CCCN2CC[C@@H](C(=O)O)N2C1=O)[C@@H](S)Cc1ccccc1`, for which the half-maximal inhibitory concentration (IC50) stood at 12 nM.

`O=C(N[C@H]1CCCN2CCC[C@@H](C(=O)O)N2C1=O)[C@@H](S)Cc1ccccc1` came in with an IC50 of 8 nM.

`O=C(O)CN1NCCC[C@H](NC(=O)[C@@H](S)Cc2ccccc2)C1=O` yielded a 50% inhibitory concentration (IC50) of 60 nM.
